From US10005731B2, “Modulators of the retinoid-related orphan receptor gamma (ROR-gamma) for use in the treatment of autoimmune and inflammatory diseases” (Glaxo Group Limited, priority 2012, dated 2018)
pIC50: −log10 of the molar value. Counter-ions that a name gives are not always drawn. Like-named read-outs stand apart in the source and are kept apart here.

Assays:
RORγ = target: T1, RORγ (Homo sapiens, UniProt P51449); experiment: Jurkat cell luciferase assay (human IL17 promoter reporter, RORγt overexpression); type: cell-based; conditions: mean pIC50; detection limit of the assay 5
T1 construct: expressed in transfected cells
T1 sequence (P51449 1-497 isoform P51449-2): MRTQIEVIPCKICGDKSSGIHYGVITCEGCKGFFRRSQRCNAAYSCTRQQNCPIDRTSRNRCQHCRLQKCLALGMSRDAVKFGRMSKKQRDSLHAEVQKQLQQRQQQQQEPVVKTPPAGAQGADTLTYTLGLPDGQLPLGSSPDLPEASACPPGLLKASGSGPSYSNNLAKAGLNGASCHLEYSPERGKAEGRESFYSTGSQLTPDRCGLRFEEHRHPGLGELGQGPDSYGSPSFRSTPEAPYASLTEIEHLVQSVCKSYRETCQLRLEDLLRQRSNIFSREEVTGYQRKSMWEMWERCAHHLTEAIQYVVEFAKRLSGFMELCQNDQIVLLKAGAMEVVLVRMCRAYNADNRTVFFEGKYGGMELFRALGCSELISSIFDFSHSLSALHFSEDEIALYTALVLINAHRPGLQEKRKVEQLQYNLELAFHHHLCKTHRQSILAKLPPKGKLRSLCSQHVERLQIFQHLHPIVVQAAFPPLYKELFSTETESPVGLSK
Description: RORγ is known to bind to a CNS (conserved non-coding sequences) enhancer element in the IL17 promoter. In this assay, RORγ activity is indirectly assessed using a luciferase reporter construct which contains the human IL17 promoter having the RORγ-specific CNS enhancer element. Inhibition of RORγ activity by a compound will result in a decrease in luciferase activity of Jurkat cells transfected with the reporter construct.
. For the 1.1 Kb fragment, PCR was used to amplify human IL17 proximal promoter region from genomic DNA of 293T cells using primers as follows: forward primer, 5′-[…]-3′ (SEQ ID NO. 4) (Xhol site is underlined) and reverse primer, 5′-[…]-3′ SEQ ID NO. 5) (HindIII site is underlined). The 1.1 kb DNA bands were excised, purified, and inserted into pMD19-T Simple Vector (Takara). After DNA sequencing confirmation, the 1.1 kb DNA was digested with XhoI and HindIII and inserted into XhoI/HindIII sites of pGL4.31[luc2P/GAL4UAS/Hygro] (Promega) to generate the pIL17-lkb-luc reporter construct. For the 1.9 Kb fragment, PCR was used to amplify human IL17 promoter region from genomic DNA using primers as follows: forward primer, 5′-[…]-3′ (SEQ ID NO. 6) (KpnI site is underlined) and reverse primer, 5′-[…]-3′ (SEQ ID NO. 7)(XhoI site is underlined). The resulting 1.9 kb DNA bands were excised, gel purified, and cloned into a pMD19-T Simple Vector (Takara). […] The 1.9 kb DNA fragment was released by double digestion with KpnI and XhoI and inserted into pIL17-lkb-luc to generate the luciferase reporter plasmid “pIL17-3kb-CNS-luc.” To overexpress RORγt, the full-length cDNA of human RORγt identical to the published sequence NM13 001001523 was cloned into pcDNA3.1 at the KpnI-NotI cloning sites to generate the RORγt overexpression plasmid “CDNA3.1DhRORγ49-8”. […]
Compounds were dissolved in DMSO at three concentrations, 10 mM, 400 uM and 16 uM, and were dispensed into 384-wells assay plate at 40 nl, 12.5 nl, 5 nl respectively. The volume was adjusted with pure DMSO to a give a final uniform volume of 40 nl Jurkat cells described above were counted and centrifuged. […]

Mouse CD4+ cells = experiment: Th17 cell differentiation assay (IL-17 ELISA); type: cell-based
Method: Mouse CD4+cells were purified using the CD4+ T Cell Isolation II Kit according to manufacturer's instructions (Miltenyi Biotec). 96 well plates were pre-coated with anti-mCD3 antibody. Un-coated wells were used as controls. CD4+ Cells were resuspended in RPMI 1640 complete medium and were added to the 96-well plates. Cytokine cocktail and the compound were then added to the wells. Antibodies and cytokines (all from R&D Systems) used in the assay were selected from the following: anti-mCD3; anti-mCD28; anti-mIFNγ; anti-mIL4; mIL-6; mIL-23; mIL-1β; hTGF-β1. The culture was incubated at 37° C. for 3 days and supernatants were collected for ELISA. The IL-17 ELISAs were performed according to manufacturer's instructions (R&D Systems). The results were analyzed using Prism software with non-linear regression to determine pIC50.

[1] = In vitro percutaneous study (Franz diffusion cells, aqueous cream); type: in vitro ADME, human
Description: The in vitro percutaneous study is aimed to predict the level of percutaneous penetration obtained for a compound in a topical formulation for psoriasis. This assay coupled with the intrinsic potency of the compound are used to predict the likelihood of success of a compound to engage the target. The higher the ratio of the percutaneous penetration to the intrinsic potency, the higher the ratio of local skin concentration to the intrinsic potency and therefore the higher the chance of a compound to engage the target in a topical formulation.
The compounds were manufactured in a modified aqueous cream at pH=6.
The study was conducted with dermatomed abdominal human skin sourced from three skin donors using 2 cm2 Franz diffusion cells. The receiving fluid consisted of Bovine serum albumin (4% w/v) in 0.1% w/v sodium azide in Phospate Buffer Saline and was heated at 37° C. in order to obtain 32° C. at the skin surface. The cream formulation was applied on the donor side at a 10 mg dose, i.e. 5 mg/cm^2. The samples taken at the following time points: t=0, 3, 6, 9 and 24 h. The receiver samples were then assayed using a method based upon protein precipitation with acetonitrile followed by LC/MS/MS analysis. The percutaneous flux (in ng/cm^2/hr) was determined using the individual API (in a multiple composition) that had permeated into the receiver compartment over 24 hrs per cm^2.

[2] = 72 h, mean pIC50, IL-17 ELISA, 3 days culture, detection limit of the assay 5, read-out: pIC50 in the Th17 cell differentiation assay (converted)

IC50 (Mouse CD4+ cells; table with percutaneous study, read-out: Th17 cell differentiation assay IC50) [ng/mL]	IC50 (Mouse CD4+ cells; table with percutaneous study, read-out: Th17 cell differentiation assay pIC50 (converted)) [nM]	Flux over 24 hrs ([1]; 1.0% w/w in aqueous cream pH=6, 5 mg/cm^2, human skin from three donors) [ng/cm^2/hr]	ratio of percutaneous penetration (Flux) to intrinsic potency (Th17 cell differentiation assay IC50) ([1]; ranking among the three compounds tested)	SMILES	pIC50 (RORγ)	IC50 (Mouse CD4+ cells; [2]) [nM]
0.4	0.794	3.43	highest ratio	Cc1c(CN2CCN(C(=O)C3CCCC3)[C@@H](C)C2)cc(F)cc1NC(=O)c1cccc(C#N)c1 [Example 66, (S)-3-cyano-N-(3-((4-(cyclopentanecarbonyl)-3-methylpiperazin-1-yl)methyl)-5-fluoro-2-methylphenyl)benzamide]	~8.30	~0.794
–	–	–	–	Cc1c(CN2CCN(C(=O)C3CCCC3)[C@@H](C)C2)cc(Cl)cc1NC(=O)c1cccc(C#N)c1 [Example 193, (S)-N-(5-chloro-3-((4-(cyclopentanecarbonyl)-3-methylpiperazin-1-yl)methyl)-2-methylphenyl)-3-cyanobenzamide, trifluoroacetic acid salt]	~8.60	~5.01
